# Literature values as cited in patent publication US20080242855A1, “Process for Producing Flavone C Glycoside Derivatives” (priority 2004, published 2008).
# Columns and labels:
# [1] = tested on: auricular edema induced by 2,4-dinitrofluorobenzen (DNFB); conditions: reported in Japanese Patent Laid-Open No. 2004-035474
# peritoneal mast cells = conditions: reported in Japanese Patent Laid-Open No. 2004-035474
SMILES,"inhibitory effect on the formation of auricular edema induced by 2,4-dinitrofluorobenzen (DNFB) [1]",inhibitory effect on histamine release from peritoneal mast cells (peritoneal mast cells)
O=c1cc(-c2ccc(O)cc2)oc2cc3c(c(O)c12)[C@@H]1O[C@H](CO)[C@@H](O)[C@H](O)[C@@H]1O3 [formula (1)],inhibitory effect,inhibitory effect
O=c1cc(-c2ccc(O)cc2)oc2c3c(cc(O)c12)O[C@H]1[C@@H](O)[C@H](O)[C@@H](CO)O[C@@H]31 [formula (4)],inhibitory effect,inhibitory effect
